Measured values reported in US20200407370A1, “PEPTIDYLARGININE DEIMINASE INHIBITOR AND USE THEREOF” (Nanjing Transthera Biosciences Co., Ltd., priority 2018, published 2020).
Like-named read-outs stand apart in the source and are kept apart here.

What was measured:
[1] = Liver microsomal stability in human; type: in vitro ADME; conditions: human liver microsomes, 0.5 mg protein/mL, 1 μM compound, 37° C.
Method: (§1) Experimental Example 2: Evaluation on Liver Microsomal Stability of the Compound Disclosed Herein in Human/Canine
(§2) An appropriate amount of the compound was precisely weighed and dissolved in DMSO to prepare a 5.0 mM stock solution. 5.0 mM stock solution was diluted to 1.0 mM with DMSO, and then diluted with water to 10 μM, serving as a compound working solution for later use (DMSO content in the reaction system: 0.1% v/v).
(§3) • (1) The liver microsomes (20 mg protein/mL) were taken from a −80° C. refrigerator, pre-incubated on a 37° C. water bath thermostatic oscillator for 3 min, and thawed for use. • (2) A mixed incubation system solution (without compounds or β-NADPH) was prepared according to the proportion of “composition of the incubation system” described above and pre-incubated on a 37° C. water bath thermostatic oscillator for 2 min. • (3) Control group (without β-NADPH): 30 μL of water and 30 μL of compound working solution (10 μM) were added to 240 μL of the mixed incubation system solution in step (2), and the mixture was vortexed for 30 s and mixed. The total volume of the mixture was 300 μL. The sample was duplicated. The reaction solution was placed on a 37° C. water bath thermostatic oscillator for incubation, and timing was started. Samples were collected at 0 min and 60 min. • (4) Sample group: 70 μL of β-NADPH solution (10 mM) and 70 μL of compound working solution (10 μM) were added to 560 μL of the mixed incubation system solution in step (2), and the total volume of the mixture was 700 μL. The mixture was vortexed for 30 s and mixed. The sample was duplicated. The reaction solution was placed on a 37° C. water bath thermostatic oscillator for incubation, and timing was started. Samples were collected at 0 min, 5 min, 10 min, 20 min, 30 min and 60 min after timing. • (5) The reaction solution was vortexed for 3 min, and centrifuged at 12,000 rpm for 5 min. • (6) 50 μL of the supernatant was added to 150 μL of water, and the resulting solution was vortexed and mixed before LC/MS/MS analysis.
(§4) The half-life (t1/2) and clearance (Cl) were calculated using the following first-order kinetic formula:
(§5) Vd=1/protein content in liver microsomes
(§6) Note: k denotes the slope of the logarithm of the remaining amount of a compound vs. time, Vd denotes apparent volume of distribution, C0 denotes drug concentration at 0 h, Ct denotes drug concentration at time t, t denotes time, e denotes natural number, and Clint denotes intrinsic clearance.

[2] = Pharmacokinetics (PK) of the compound in rats; type: in vivo; conditions: rat, plasma, SD rats
Method: Experimental Example 3: Pharmacokinetics (PK) of the Compound in Rats
The test compound was dissolved in a mixture of 5% v/v DMSO+20% v/v (30% v/v solutol (polyethylene glycol-15 hydroxystearate purchased from BASF, batch no. 84773247G0))+75% v/v brine to prepare a solution, which was then administered to SD rats by oral gavage at a dose of 5.0 mg/kg. Blood samples were collected at 15 min, 30 min, 1 h, 2 h, 4 h, 6 h, 8 h and 24 h.
The test compound was dissolved in a mixture of 5% v/v DMSO+20% v/v (30% v/v solutol)+75% v/v brine to prepare a solution, which was administered to SD rats by intravenous bolus at a dose of 1 mg/kg. Blood samples were collected at 5 min, 15 min, 30 min, 1 h, 2 h, 4 h, 6 h, 8 h and 24 h.
The animals were fixed, with tails warmed in a water bath 10 min before each sampling time point. About 100 μL of blood was collected via the tail vein, and the blood samples were collected in anticoagulation tubes containing EDTA-K2. The blood samples were centrifuged at 8,000 rpm for 6 min at 4° C. to give plasma samples within 30 min after collection. The plasma samples were stored in a refrigerator at −80° C. before test.
The sample was taken out from the −80° C. refrigerator, and vortexed for 5 min after naturally thawed at room temperature. 20 μL of plasma sample was pipetted into a 1.5 mL centrifuge tube, and 200 μL of 100 ng/mL internal standard working solution (a solution of tolbutamide in methanol) was added. The resulting mixture was mixed, vortexed for 5 min, and then centrifuged at 12,000 rpm for 5 min. 50 μL of the supernatant was pipetted into a 96-well plate with 150 μL of water per well, and the plate was vortexed for 5 min before LC-MS/MS analysis.
The concentration was calculated by Analyst 1.6.3 from AB Sciex. Parameters such as mean, standard deviation and coefficient of variation (excluding those output directly by Analyst 1.6.3) were calculated by Microsoft Excel. PK parameters were calculated by Pharsight Phoenix 6.1 software NCA (Tmax was in median).

[3] = Liver microsomal stability in canine; type: in vitro ADME; conditions: dog; canine liver microsomes, 0.5 mg protein/mL, 1 μM compound, 37° C.
Method: as §1, §2, §3, §4, §5, §6

[4] = target: T1, Peptidylarginine deiminase 4 (PAD4) (Homo sapiens, UniProt Q9UM07); test: Assay of enzyme-inhibiting activity (PAD4, FAM-AcH4(1-5) peptide, Caliper detection); type: biochemical; conditions: 10 nM PAD4, 5 μM peptide, 0.1 mM Ca2+, pH 8.0
T1 construct: purchased Cayman 10500
Method: Experimental Example 1: Assay of Enzyme-Inhibiting Activity of Compound
Sample: The compound disclosed herein prepared according to exemplary methods.
Peptidylarginine deiminase 4 (PAD4): Cayman, Cat. No. 10500, Lot. No. 0519694;
Carboxyfluorescein-labeled peptide (Peptide FAM-AcH4 (1-5)): GL Biochem, Cat. No. 0200046, Lot. No. P161110-TL545976;
An appropriate amount of the compound to be assayed was dissolved in DMSO to 10 mM. An appropriate amount of 10 mM mother liquor of the compound to be assayed was diluted to 1.5 mM with DMSO, and the solution was then serially diluted 3-fold with DMSO to give 50× concentrations of gradient compound solutions. Finally, 10-fold dilution was carried out with reaction buffer (an aqueous solution of 100 mM HEPES (2-[4-(2-hydroxyethyl)piperazin-1-yl]ethanesulfonic acid) containing 0.01% v/v Triton, pH 8.0) to give 5× concentrations of gradient compound solutions (150 μM, 50 μM, 16.667 μM, 5.556 μM, 1.852 μM, 0.617 μM, 0.206 μM, 0.069 μM, 0.023 μM, and 0.008 μM).
1) Reaction buffer: aqueous solution of 100 mM HEPES (2-[4-(2-hydroxyethyl)piperazin-1-yl]ethanesulfonic acid) containing 0.01% v/v Triton, pH 8.0;
2) Stop solution: aqueous solution of 100 mM HEPES (2-[4-(2-hydroxyethyl)piperazin-1-yl]ethanesulfonic acid) containing 0.015% w/v Brij-35, 0.2% v/v Coating Reagent (coating solution) #3 (PE, part no. 760050) and 50 mM EDTA, pH 8.0;
3) 2.5× enzyme solution: An appropriate amount of PAD4 was diluted to 2.5× (final concentration: 10 nM) with reaction buffer;
4) 2.5× polypeptide solution: An appropriate amount of carboxyfluorescein -labeled peptide (FAM-AcH4(1-5) peptide) and CaCl2) solution was diluted to 2.5× (the final concentration of polypeptide: 5 μM, the final concentration of Ca^2+: 0.1 mM) with reaction buffer.
5 μL of 5× compound solutions or solvents with different concentrations were added to a 384-well plate, 10 μL of 2.5× enzyme solution was then added, and the plate was incubated at room temperature for 10 min. 10 μL of 2.5× polypeptide solution was then added to each well, and the plate was incubated at 28° C. for a certain period of time. 25 μL of stop solution was added to stop reaction. Caliper was used for detection. The inhibition rate was calculated according to the following formula:
Inhibition percentage=(max−transformation)/(max−min)*100.
“max” denotes DMSO control; and “min” denotes low control.

T1 sequence (Q9UM07 whole entry): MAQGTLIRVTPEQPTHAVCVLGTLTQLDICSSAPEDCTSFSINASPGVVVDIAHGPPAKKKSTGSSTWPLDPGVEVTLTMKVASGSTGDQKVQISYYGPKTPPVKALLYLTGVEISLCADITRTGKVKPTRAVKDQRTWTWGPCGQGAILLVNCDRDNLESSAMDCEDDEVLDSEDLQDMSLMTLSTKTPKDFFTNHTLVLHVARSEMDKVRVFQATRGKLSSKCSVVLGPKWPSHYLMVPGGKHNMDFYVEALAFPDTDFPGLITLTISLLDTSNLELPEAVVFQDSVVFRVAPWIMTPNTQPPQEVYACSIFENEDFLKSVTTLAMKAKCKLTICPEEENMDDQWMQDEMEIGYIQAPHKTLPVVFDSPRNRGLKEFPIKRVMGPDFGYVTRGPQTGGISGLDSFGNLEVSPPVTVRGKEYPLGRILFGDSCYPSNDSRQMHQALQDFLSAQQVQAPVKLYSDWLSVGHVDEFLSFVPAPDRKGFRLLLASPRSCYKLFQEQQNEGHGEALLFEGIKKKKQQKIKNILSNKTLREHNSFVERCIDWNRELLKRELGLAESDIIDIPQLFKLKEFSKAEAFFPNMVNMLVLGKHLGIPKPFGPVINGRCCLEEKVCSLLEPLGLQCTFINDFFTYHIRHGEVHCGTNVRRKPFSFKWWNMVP

SMILES | half-life at 1 μM [1] | microsomal CLint at 1 μM [1] | bioavailability ([2]; IV 1 mg/kg, PO 5 mg/kg, n = 3, read-out: F (absolute bioavailability)) | AUC(0-t) ([2]; IV 1 mg/kg, n = 3, read-out: AUClast iv (area under concentration-time curve 0-24 h)) | clearance ([2]; IV 1 mg/kg, n = 3, read-out: Cl_obs iv (clearance) (converted)) | Vd ([2]; IV 1 mg/kg, n = 3, read-out: Vz_obs iv (apparent volume of distribution)) | half-life ([2]; IV 1 mg/kg, n = 3, read-out: tz1/2 iv (terminal half-life) (converted)) | Tmax ([2]; PO 5 mg/kg, n = 3, median, read-out: Tmax po (time to maximum plasma concentration)) | AUC(0-t) ([2]; PO 5 mg/kg, n = 3, read-out: AUClast po (area under concentration-time curve 0-24 h)) | half-life ([2]; PO 5 mg/kg, n = 3, read-out: tz1/2 po (terminal half-life) (converted)) | half-life at 1 μM [3] | microsomal CLint at 1 μM [3] | IC50 [4]
CCn1c(-c2nc3cc(C(=O)N4CCC[C@@H](N)C4)cc(OC)c3n2C)cc2cccnc21 [Compound GSK199, reference compound] | 4.45 h | 5.2 µL/min/mg | 33.1% | 330 ng·h/mL | 48.2 mL/min/kg | 6.75 L/kg | 1.63 h | 4 h | 496 ng·h/mL | 2.23 h | 12.8 h | 1.8 µL/min/mg | 140 nM
COc1cc(C(=O)N2CCC[C@@H](N)C2)cc2nc(-c3cc4ccoc4n3CC3CC3)n(C)c12 [Compound 24, (R)-(3-aminopiperidin-1-yl)(2-(6-(cyclopropylmethyl)-6H-furo[2,3-b]pyrrol-5-yl)-7-methoxy-1-methyl-1H-benzo[d]imidazol-5-yl)methanone] | – | – | – | – | – | – | – | – | – | – | – | – | 54 nM
CCn1c(-c2nc3cc(C(=O)N4CCC[C@@H](N)C4)cc(OC)c3n2C)cc2ccoc21 [Compound 4, (R)-(3-aminopiperidin-1-yl)(2-(6-ethyl-6H-furo[2,3-b]pyrrol-5-yl)-7-methoxy-1-methyl-1H-benzo[d]imidazol-5-yl)methanone] | 11.6 h | 2 µL/min/mg | – | – | – | – | – | – | – | – | 5.5 h | – | 350 nM
